# Data as given in ChEMBL document CHEMBL4665641, “Lead optimization and efficacy evaluation of quinazoline-based BET family inhibitors for potential treatment of cancer and inflammatory diseases” (Bioorg Med Chem Lett, 2019).
# Tested on: not listed separately
# Experiment: AUC(0 to infinity) in CD-1 mouse at 2 mg/kg, iv
# Type: ADME, organism-based
# Design: time infinity, route intravenous, dose 2 mg/kg
# Settings: mouse, in vivo
row,Structure (SMILES),AUC
1,Cc1noc(C)c1-c1ccc2nc(N3CCN(CCN(C)C)CC3)nc(N3CCOC[C@@H]3c3ccccc3)c2c1,585 ng·h/mL
2,Cc1noc(C)c1-c1ccc2nc(-c3cnn(CC(C)(C)O)c3)nc(N3CCNC[C@@H]3c3ccccc3)c2c1,123 ng·h/mL

# Tested on: MV4-11
# Experiment: Cytotoxicity against human MV4-11 cells assessed as inhibition of cell viability
# Type: functional, cell-based
# Settings: not given
row,Structure (SMILES),IC50
1,Cc1noc(C)c1-c1ccc2nc(C(=O)NC3CCN(C)CC3)nc(N3CCOC[C@@H]3c3ccccc3)c2c1,1.6 µM
2,Cn1cc(-c2ccc3nc(-c4cnn(CC(C)(C)O)c4)nc(N4CCOC[C@@H]4C4CCCCC4)c3c2)ccc1=O,0.53 µM
3,Cc1noc(C)c1-c1ccc2nc(-c3cnn(C(C)(C)CO)c3)nc(N3CCOC[C@@H]3c3ccccc3)c2c1,1.97 µM
4,Cn1cc(-c2ccc3nc(-c4cnn(CC(C)(C)O)c4)nc(N4CCOC[C@@H]4c4ccc(Cl)cc4)c3c2)ccc1=O,1.14 µM
5,Cn1cc(-c2ccc3nc(-c4cnn(CC(C)(C)O)c4)nc(N4CCOC[C@@H]4C4CC4)c3c2)ccc1=O,2.35 µM
6,Cc1noc(C)c1-c1ccc2nc(N3CCC4(CCC(=O)N4C)CC3)nc(N3CCOC[C@@H]3c3ccccc3)c2c1,1.38 µM
7,Cc1noc(C)c1-c1ccc2nc(N3CCN(CCN(C)C)CC3)nc(N3CCOC[C@@H]3c3ccccc3)c2c1,0.69 µM
8,Cc1noc(C)c1-c1ccc2nc(-c3cnn(CC(C)(C)O)c3)nc(N3CCNC[C@@H]3c3ccccc3)c2c1,0.59 µM

# Target: Bromodomain-containing protein 4 (Homo sapiens, UniProt O60885)
# Experiment: Competitive binding affinity to human partial length BRD4 (BD1,2) (N44 to E460 residues) expressed in bacterial expression system by BROMOscan assay
# Settings: not given
row,Structure (SMILES),Kd
1,Cc1noc(C)c1-c1ccc2nc(C(=O)NC3CCN(C)CC3)nc(N3CCOC[C@@H]3c3ccccc3)c2c1,0.21 µM
2,Cn1cc(-c2ccc3nc(-c4cnn(CC(C)(C)O)c4)nc(N4CCOC[C@@H]4C4CCCCC4)c3c2)ccc1=O,0.025 µM
3,Cc1noc(C)c1-c1ccc2nc(-c3cnn(C(C)(C)CO)c3)nc(N3CCOC[C@@H]3c3ccccc3)c2c1,0.087 µM
4,Cn1cc(-c2ccc3nc(-c4cnn(CC(C)(C)O)c4)nc(N4CCOC[C@@H]4c4ccc(Cl)cc4)c3c2)ccc1=O,0.119 µM
5,Cn1cc(-c2ccc3nc(-c4cnn(CC(C)(C)O)c4)nc(N4CCOC[C@@H]4C4CC4)c3c2)ccc1=O,2.2 µM
6,Cc1noc(C)c1-c1ccc2nc(N3CCC4(CCC(=O)N4C)CC3)nc(N3CCOC[C@@H]3c3ccccc3)c2c1,0.051 µM
7,Cc1noc(C)c1-c1ccc2nc(-c3cnn(CC(C)(C)O)c3)nc(N3CCNC[C@@H]3c3ccccc3)c2c1,0.088 µM
